How the values were obtained:
[1] = test system: E. multilocularis metacestodes; test: Secondary infection with E. multilocularis metacestodes, chemotherapy starting at the timepoint of infection (Example 1); format: in vivo, Echinococcus multilocularis; details: Balb/c mice, i.p. 20 metacestodes; daily intragastric treatment from day of infection for 35 days; necropsy day 36; CMC group 0.23±0.05 g
Procedure: (§1) E. multilocularis metacestodes (isolate IM280) were maintained by serial transplantation passages through intraperitoneal (i.p.) injection in gerbils (Meriones unguiculatus). Animals were sacrificed at four to ten weeks p.i, and the parasite material was removed from the peritoneal cavity under aseptic conditions, placed into Hanks balanced salt solution (HBSS), and washed several times. Vesicle suspensions were prepared as described in Hemphill, A., and B. Gottstein. 1995. Immunology and morphology studies on the proliferation of in vitro cultivated Echinococcus multilocularis metacestodes. Parasitol. Res. 81: 605-614. Vesicles were washed once in HBSS, and the number of intact metacestodes in 50 ml HBSS was determined microscopically. The metacestode suspension was adjusted to 20 intact vesicles/100 ml HBSS, and was used for infection experiments immediately.
Six week old Balb/c mice were housed in a temperature-controlled light-cycle room with food and water ad libitum. The mice were separated into experimental groups of 10 animals each. Drug suspensions (30 mg/ml NTZ, 10 mg/ml ABZ, and 30 mg NTZ plus 10 mg ABZ/ml, respectively) were prepared in carboxymethylcellulose (CMC) 0.5% (w/v) in water. […]
(§2) For assessments of secondary infections, parasite tissue was carefully removed from the peritoneal cavity, and the parasite weight was determined as described in: Dai, W. J., and B. Gottstein. […]

[2] = test system: E. multilocularis metacestodes; test: Secondary infection with E. multilocularis metacestodes, chemotherapy starting at two months post infection (Example 2); format: in vivo, Echinococcus multilocularis; details: Balb/c mice; treatment initiated 2 months p.i., daily for 35 days; vs CMC control (4.3±0.9 g)
Procedure: as §1, with “The metacestode suspension was adjusted to 20 intact vesicles/100 ml HBSS, and was used for infection experiments immediately.” left out
as §2
(§3) For serological and lymphocyte proliferation assays, blood was taken from euthanized mice by heart puncture, and total IgG-, as well as IgG1- and IgG2a-isotype levels against crude E. multilocularis extract (Faub-antigen) and vesicle fluid antigen, were determined according to: Dai, W. J., A. Hemphill, A. Waldvogel, K. Ingold, P. Deplazes, H. Mossmann, and B. Gottstein. […]

[3] = Single-dose pharmacokinetic study, serum levels of TIZ, TIZ-gluc and ABZSO (Example 4); format: in vivo; details: non-infected Balb/c mice; single dose 1 mg ABZ or 3 mg/1 mg NTZ/ABZ
Procedure: A total of 120 6-week old non-infected Balb/c mice were divided into three treatment groups: group 1 (NTZ—30 mice), group 2 (ABZ—30 mice), group 3 (NTZ/ABZ—60 mice). They received a single dose of 3 mg NTZ (group 1), 1 mg ABZ (group 2) and 3 mg/1 mg of NTZ/ABZ (group 3) in a volume of 100 μl suspended in 0.5% CMC. At defined time points following inoculation, (0, 1, 2, 4, 6, 8, 12, 24 and 48 h), blood samples were obtained from three mice/group, and blood levels of tizoxanide (TIZ), tizoxanide-glucuronide (TIZ-gluc) and ABZSO were assayed.
TIZ and Tiz-gluc were extracted from mouse serum samples using protein precipitation with acetonitrile. The supernatant was evaporated and reconstituted in injection solvent before injection. Chromatographic separation was achieved on a C18 column (5 pm 70×2 mm). Detection was by a mass spectrometer with an ion spray ionization source. Negative ions were detected in multiple reaction monitoring mode (Q1=264 m/z and Q3=216.9 m/z for TIZ, and Q1=439.9 m/z and Q3=263.9 m/z for TIZ-gluc). The lower limits of quantitation were 0.05 μg/ml and 0.2 μg/ml for TIZ and TIZ-gluc, respectively. […]

[4] = test system: E. multilocularis metacestode tissue; test: Histology and transmission electron microscopy of metacestode tissue from treated mice (Example 5); format: in vivo, Echinococcus multilocularis; details: for Ultrastructural alterations of metacestode tissue (TEM): tissue from treated infected mice vs CMC-control; for Histology of metacestode tissue: tissue from treated infected mice vs control
Procedure: For histological and transmission electron microscopy (TEM) analysis, tissue samples were fixed in 3% paraformaldehyde/1% glutaraldehyde in 100 mM sodium cacodylate buffer (pH 7.2) for 24 h at 4° C., and postfixed in 2% OsO4 in cacodylate buffer for 4 h at room temperature. The samples were then processed and embedded in Epon 812 epoxy resin as described previously in: Hemphill, A., and S. L. Croft. 1997. Electron microscopy in Parasitology. In: p. 227-268. M. Rogan (ed), Analytical Parasitology, Springer Verlag, Heidelberg. Sections of […] in thickness were used for histological examination, and ultrathin sections 80-100 nm for transmission electron microscopy. Sections were loaded onto 300-mesh copper grids, and were contrasted with uranyl acetate and lead citrate as described previously in: Hemphill, A., and S. L. Croft. 1997. Electron microscopy in Parasitology. In: p. 227-268. M. Rogan (ed), Analytical Parasitology, Springer Verlag, Heidelberg. Specimens were viewed on a Phillips 300 transmission electron microscope operating at 60 kV.
Because it was not possible to investigate alterations of the actual parasite tissue on the germinal layer using histology, transmission electron microscopy was performed on sections obtained from the same tissue blocks. For evaluating the ultrastructural changes occurring during drug treatments, it is important to note that the process of tissue damage was not uniform, as it progressed at different rates in different metacestode vesicles. However, within a single metacestode, damage was rather homogenous. Therefore, a large number of different metacestodes, and as a consequence, different areas of a tissue block, were investigated in order to show a complete picture of the tissue alterations induced by ABZ, NTZ, and NTZ/ABZ-treatments.

[5] = mice and humans, literature; cited from earlier work
E. multilocularis eggs = test: Primary infection with E. multilocularis eggs, chemotherapy starting at two months post infection (Example 3); format: in vivo, Echinococcus multilocularis; details: Balb/c mice, 2000 eggs intragastric; NTZ from 2 months p.i., daily for 35 days; infection control 5 lesions/mouse
Excerpt: Infective E. multilocularis eggs were isolated from fox intestinal tissue as described (Pater, C., V. Muller, S. Harraga, M. Liance, V. Godot, J. P. Carbillet, D. Meillet, T. Romig, and D. A. Vuitton. 1998). Intestinal and systemic humoral immunological events in the susceptible Balb/C mouse strain after oral administration of Echinococcus multilocularis eggs. Parasite Immunol. 20: 623-9). The infectivity of this batch of eggs was pre-determined by titration-infection experiments in mice, and an infection dose of 2000 eggs was used.
Six week old Balb/c mice were housed in a temperature-controlled light-cycle room with food and water ad libitum. The mice were separated into experimental groups of 10 animals each. […]
For analysis of primary infection, the entire liver was removed, and lesion numbers were determined as described: Siles-Lucas, M., M. Merli, U. Mackenstedt and B. Gottstein 2003. […]
as §3

[6] = Solubility of NTZ in solvents; format: physicochemical
[7] = Oral absorption of NTZ (general statement)

| Compound | Parasite weight [1] [g] | Reduction in parasite weight (in words) [2] | ABZSO serum concentration at 12 h [3] | Ultrastructural alterations of metacestode tissue (TEM) [4] | Histology of metacestode tissue [4] | Time after which ABZSO disappears following ABZ uptake [5] [h] | Number of liver lesions (means) (E. multilocularis eggs) [lesions/mouse] | solubility ([6]; DMSO, organic solvent or mixture) [mg/mL] | Solubility in acetic acid ([6]; acetic acid) | Solubility in acetone ([6]; acetone) | Solubility in chloroform ([6]; chloroform) | Solubility in dioxane ([6]; dioxane) | Solubility in ethanol ([6]; ethanol) | Solubility in ether ([6]; ether) | Solubility in methyl benzene ([6]; methyl benzene) | Solubility in pyridine ([6]; pyridine) | Solubility in water ([6]; water) | Oral absorption [7] |
| --- | --- | --- | --- | --- | --- | --- | --- | --- | --- | --- | --- | --- | --- | --- | --- | --- | --- | --- |
| CCCSc1ccc2nc(NC(=O)OC)[nH]c2c1 [ABZ] | 0.08 ± 0.01 | significant reduction in parasite weight | zero | parasite tissue was mostly reduced to only the tegument | limited destructive effect | ≤ 10 | – | – | – | – | – | – | – | – | – | – | – | – |
| CC(=O)Oc1ccccc1C(=O)Nc1ncc([N+](=O)[O-])s1 [NTZ, 2-(acetolyloxy)-N-(5-nitro-2-thiazolyl)benzamide] | 0.17 ± 0.05 | not statistically significant | – | rather heterogeneous morphological features | limited destructive effect | – | 2.2 | ≥ 2 | poorly soluble | fairly soluble | poorly soluble | fairly soluble | poorly soluble | very poorly soluble | very poorly soluble | easily soluble | very poorly soluble | easily absorbed orally |

Reference: patent US20050171169A1, “Combination chemotherapy for helminth infections” (priority 2004, published 2005)
